Tests used:
Type in all cases: cell-based
[1] = tested on: Wnt activity (Sp5-Luc reporter, human Sp5 promoter with eight TCF/LEF binding sites) in SW480 colon carcinoma cells; test: Screening assay for Wnt activity: Sp5-Luc reporter gene assay in SW480 cells; conditions: for inhibition at 10 µM: read-out: percent inhibition at 10 μM (given for EC50 of >10 μM); for EC50: 10-point dose-response starting from 10 μM, overnight incubation
Summary of the method: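 Luminescence (BrightGlo) read after overnight 37 °C exposure of Sp5-Luc SW480 reporter cells, 4,000/well in 1% FBS, to compound dosed 1:3 over 10 points from 10 μM with 0.1% DMSO. Values normalized to DMSO-only cells, fitted with variable-slope four-parameter model; where EC50 exceeds 10 μM, % inhibition at 10 μM reported.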

SW480 colon cancer cells = test: Cell viability assay (CellTiter-Blue) in SW480 colon cancer cells; conditions: Homo sapiens, 96 h; for inhibition at 10 µM: four days, CellTiter-Blue, read-out: percent inhibition at 10 μM (given for EC50 of >10 μM); for EC50: four days incubation, CellTiter-Blue cell viability
Summary of the method: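 Four-day exposure of SW480 cells (~2×10^3/well) to compound from 10 μM down to 0.004 μM in 1:3 steps, in duplicate. Resorufin fluorescence from CellTiter-Blue after ~3 h served as the viability read-out. EC50 values came from nonlinear curve fits, with % inhibition at 10 μM given where EC50 >10 μM.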

[2] = tested on: LL29 cells (primary human fibroblasts derived from IPF patients) treated with TGF-β1, α-smooth muscle actin; test: Inhibition of the fibrotic process: αSMA staining in TGF-β1 treated primary human fibroblasts from IPF patients (LL29 cells); conditions: Fibroblast, 96 h; for EC50: LL29 cells treated with TGF-β1 (20 ng/mL), 4 days; for inhibition at 10 µM: LL29 cells treated with TGF-β1, 4 days, read-out: percent inhibition in brackets (given for EC50 >10 μM)

`Oc1cncc(-c2ccc3[nH]nc(-c4nc5c(N6CCCCC6)cncc5[nH]4)c3n2)c1` [Compound 585, 5-(3-(7-(Piperidin-1-yl)-3H-imidazo[4,5-c]pyridin-2-yl)-1H-pyrazolo[4,3-b]pyridin-5-yl)pyridin-3-ol] was tested, and the inhibition at 10 µM [1] was 4.3%, the EC50 [1] was > 10 µM and the inhibition at 10 µM (SW480 colon cancer cells) was 2.4%. The EC50 (SW480 colon cancer cells) was > 10 µM, the EC50 [2] was > 10 µM and the inhibition at 10 µM [2] was 39.1%.

`Cc1cn(-c2cncc3[nH]c(-c4n[nH]c5ccc(C6=CCNCC6)nc45)nc23)cn1` [Compound 590, 3-(7-(4-Methyl-1H-imidazol-1-yl)-3H-imidazo[4,5-c]pyridin-2-yl)-5-(1,2,3,6-tetrahydropyridin-4-yl)-1H-pyrazolo[4,3-b]pyridine] was tested, and the inhibition at 10 µM [1] was 6.8%, the EC50 [1] was > 10 µM and the inhibition at 10 µM (SW480 colon cancer cells) was 10%. For the same molecule, the EC50 (SW480 colon cancer cells) was > 10 µM, the EC50 [2] was > 10 µM and the inhibition at 10 µM [2] was 36.8%.

With `Cc1cn(-c2cncc3[nH]c(-c4n[nH]c5ccc(-c6cncc(OCCN(C)C)c6)nc45)nc23)cn1` [Compound 599, N,N-Dimethyl-2-((5-(3-(7-(4-methyl-1H-imidazol-1-yl)-3H-imidazo[4,5-c]pyridin-2-yl)-1H-pyrazolo[4,3-b]pyridin-5-yl)pyridin-3-yl)oxy)ethan-1-amine] the inhibition at 10 µM [1] was 6.3%, the EC50 [1] was > 10 µM and the inhibition at 10 µM (SW480 colon cancer cells) was 7.1%. The EC50 (SW480 colon cancer cells) was > 10 µM, the EC50 [2] was > 10 µM and the inhibition at 10 µM [2] was 15.4%.

In the case of `CN1CCN(c2cncc3[nH]c(-c4n[nH]c5ccc(-c6cnccn6)nc45)nc23)CC1` [Compound 620, 3-(7-(4-Methylpiperazin-1-yl)-3H-imidazo[4,5-c]pyridin-2-yl)-5-(pyrazin-2-yl)-1H-pyrazolo[4,3-b]pyridine], the inhibition at 10 µM [1] is reported as 5.8%, the EC50 [1] is reported as > 10 µM and the inhibition at 10 µM (SW480 colon cancer cells) is reported as 48.8%. For the same molecule, the EC50 (SW480 colon cancer cells) was > 10 µM, the EC50 [2] was > 10 µM and the inhibition at 10 µM [2] was 34.1%.

In the case of `O=C(CC1CCNCC1)Nc1cncc(-c2ccc3[nH]nc(-c4nc5c(-c6ccsc6)cncc5[nH]4)c3n2)c1` [Compound 629, 2-(Piperidin-4-yl)-N-(5-(3-(7-(thiophen-3-yl)-3H-imidazo[4,5-c]pyridin-2-yl)-1H-pyrazolo[4,3-b]pyridin-5-yl)pyridin-3-yl)acetamide], the inhibition at 10 µM [1] is reported as 30.6%, the EC50 [1] is reported as > 10 µM and the inhibition at 10 µM (SW480 colon cancer cells) is reported as 2.8%. The EC50 (SW480 colon cancer cells) was > 10 µM and the EC50 [2] was 2.54 µM.

In the case of `Cc1ncc(-c2ccc3[nH]nc(-c4nc5c(-c6ccoc6)cncc5[nH]4)c3n2)n1C` [Compound 641, 5-(1,2-Dimethyl-1H-imidazol-5-yl)-3-(7-(furan-3-yl)-3H-imidazo[4,5-c]pyridin-2-yl)-1H-pyrazolo[4,3-b]pyridine], the EC50 [1] is reported as 0.911 µM, the EC50 (SW480 colon cancer cells) is reported as 2.88 µM and the EC50 [2] is reported as > 10 µM. It also gave an inhibition at 10 µM [2] of 0%.

For `CC(C)CC(=O)Nc1cncc(-c2ccc3[nH]nc(-c4nc5c(-c6ccc(Cl)s6)cncc5[nH]4)c3n2)c1` [Compound 992, N-(5-(3-(7-(5-Chlorothiophen-2-yl)-3H-imidazo[4,5-c]pyridin-2-yl)-1H-pyrazolo[4,3-b]pyridin-5-yl)pyridin-3-yl)-3-methylbutanamide], the EC50 [1] was 4.08 µM, the inhibition at 10 µM (SW480 colon cancer cells) was 25.1% and the EC50 (SW480 colon cancer cells) was > 10 µM. For the same molecule, the EC50 [2] was 2.29 µM.

In the case of `CC(C)(C)C(=O)Nc1cncc(-c2ccc3[nH]nc(-c4nc5c(-c6ccc(Cl)s6)cncc5[nH]4)c3n2)c1` [Compound 998, N-(5-(3-(7-(5-Chlorothiophen-2-yl)-3H-imidazo[4,5-c]pyridin-2-yl)-1H-pyrazolo[4,3-b]pyridin-5-yl)pyridin-3-yl)pivalamide], the EC50 [1] is reported as 0.551 µM, the inhibition at 10 µM (SW480 colon cancer cells) is reported as 1.5% and the EC50 (SW480 colon cancer cells) is reported as > 10 µM. The EC50 [2] was 2.7 µM.

`Clc1ccc(-c2cncc3[nH]c(-c4n[nH]c5ccc(-c6cncc(CN7CCCC7)c6)nc45)nc23)s1` [Compound 1004, 3-(7-(5-Chlorothiophen-2-yl)-3H-imidazo[4,5-c]pyridin-2-yl)-5-(5-(pyrrolidin-1-ylmethyl)pyridin-3-yl)-1H-pyrazolo[4,3-b]pyridine] showed an EC50 [1] of 3.79 µM, an EC50 (SW480 colon cancer cells) of 2.94 µM and an EC50 [2] of 3.47 µM.

`O=C(Nc1cncc(-c2ccc3[nH]nc(-c4nc5c(-c6ccc(Cl)s6)cncc5[nH]4)c3n2)c1)C1CCC1` [Compound 1011, N-(5-(3-(7-(5-Chlorothiophen-2-yl)-3H-imidazo[4,5-c]pyridin-2-yl)-1H-pyrazolo[4,3-b]pyridin-5-yl)pyridin-3-yl)cyclobutanecarboxamide] showed an EC50 [1] of 0.8 µM, an EC50 (SW480 colon cancer cells) of 2.51 µM and an EC50 [2] of 1.05 µM.

Source: patent publication US10188634B2, “3-(3H-imidazo[4,5-C]pyridin-2-yl)-1 H-pyrazolo[4,3-B]pyridines and therapeutic uses thereof” (Samumed, LLC, priority 2015, dated 2019)
